# In US7655392B2, “Quenching methods for red blood cell inactivation process” (priority 2004, dated 2010):
# Where two headings read alike, the source gives them in different places.
# How the values were obtained:
# Serratia marcescens = type: cell-based; conditions: no PIC-1, 20 mM glutathione
# [1] = tested on: Vesicular Stomatitis Virus (VSV); type: cell-based; conditions: Table 6A: 20 mM glutathione+2 eq base only, no PIC-1
# red blood cells = conditions: sample 6: 0.2 mM GSH+2 eq base, no PIC-1
# Description: Methods for determining ATP, 2,3-DPG, glucose, hemoglobin, hemolysis, and potassium are available in the art. See for example, Davey et al., Transfusion, 32:525-528 (1992), the disclosure of which is incorporated herein. Methods for determining red blood cell function are also described in Greenwalt et al., Vox Sang, 58:94-99 (1990); Hogman et al., Vox Sang, 65:271-278 (1993); and Beutler et al., Blood, Vol. 59 (1982) the disclosures of which are incorporated herein by reference. For example, intracellular ATP and intracellular 2,3-DPG are measured using a Sigma ATP kit or 2,3-DPG kit (Sigma, St. Louis, Mo.). The ATP kit is used following Sigma procedure No. 366-UV, the disclosure of which is hereby incorporated by reference. […] The extracellular pH is measured by centrifuging the cells at 4° C. for 15 minutes at 12,000×g and removing the supernatant, for which the pH is measured using a standard pH meter at room temperature (e.g. Beckman, Epoxy Calomel electrode). For the intracellular pH, the remaining pellet is capped in the centrifuge tube and stored at about −80° C. for at least 2 hours. This is then lysed by the addition of deionized water. […] Measurements can be made shortly after treatment and as a function of post treatment storage, for example storage for up to 42 days.
# Full units of red cell concentrates (Interstate Blood Bank, Inc., Memphis, Tenn.) were leukoreduced. A volume of 200 mL of this RCC (80% hematocrit) was mixed with 94 mL of Erythrosol or 100 mL of Adsol (Baxter Healthcare Corp., Deerfield, Ill.) as control (unit 1). A volume of 20 mL 8% dextrose was used to dissolve PIC-1 (mg) and acid glutathione (mg) and added to one unit to provide 0.2 mM PIC-1 and 2 mM glutathione (unit 2). […] For the glutathione, 1.2 mL of 10 N NaOH was added (2 equivalents). The PIC-1 was mixed with the unit, followed 1 minute later (unit 3) or 5 minutes later (unit 4) by glutathione. For unit 5, neutralized glutathione was mixed first, followed 10 minutes later by the PIC-1. […] All units were mixed by grasping the ends of the blood bag and mixing in a FIG. 8 motion 30 times. These were then incubated at room temperature for 20 hours total. A compound adsorption device (CAD), comprising a polymeric resin contained within a mesh pouch, was used for all but the control sample. This device is intended to remove residual PIC-1, PIC-1 breakdown products, and glutathione from the samples. Samples were incubated for 8 hours, then transferred to a second blood bag containing the CAD and incubated for an additional 12 hours. Following the room temperature incubation, samples were transferred to a refrigerator (4° C.) and stored up to 43 days. Aliquots were removed from each unit 12 hours and 20 hours post mixing, and every week thereafter. Aliquots were analyzed for total hemoglobin, pH, intracellular ATP, plasma hemoglobin, potassium, extracellular glucose and extracellular lactate.
structure (smiles),measurement,setting,value
"N[C@@H](CCC(=O)N[C@@H](CS)C(=O)NCC(=O)O)C(=O)O [glutathione, γ-L-glutamyl-L-cysteinyl-glycine]",Log S. marcescens reduction,Serratia marcescens; 0 eq base,0.02 Log
same,Log S. marcescens titer,Serratia marcescens; 0 eq base,7.0 Log
same,Log S. marcescens reduction,Serratia marcescens; 2 eq base,0.31 Log
same,Log S. marcescens titer,Serratia marcescens; 2 eq base,7.4 Log
same,Log VSV reduction,[1],−0.04 Log
same,Log VSV titer,[1],6.25 Log
same,Percent Hemolysis,red blood cells; 16B day 0,0.15%
same,Percent Hemolysis,red blood cells; 16B day 0.5,0.19%
same,Percent Hemolysis,red blood cells; 16B day 0.8,0.51%
same,Percent Hemolysis,red blood cells; 16B day 7,0.58%
same,Percent Hemolysis,red blood cells; 16B day 14,0.61%
same,Percent Hemolysis,red blood cells; 16B day 22,0.60%
same,Percent Hemolysis,red blood cells; 16B day 28,0.71%
same,Percent Hemolysis,red blood cells; 16B day 35,0.70%
same,Percent Hemolysis,red blood cells; 16B day 43,0.75%
